The record followed here is patent US9096615B2, “Bridged bicyclic amino thiazine dioxide compounds as inhibitors of beta-secretase and methods of use thereof” (AMGEN INC., priority 2013, dated 2015).

The target of one assay is BACE1 (Homo sapiens, UniProt P56817). Put plainly: In vitro enzymatic BACE FRET assay. It is filed as biochemical. As for the experimental part: In Vitro Enzymatic BACE FRET (Fluorescence Resonance Energy Transfer) Assay
Enzyme Assay Data in the Example Table I
The assay buffer used in this screen is 0.05 M acetate, pH 4.2, 10% DMSO final, 100 uM genapol (which is a nonionic detergent, below its Critical Micelle Concentration). The Beta Secretase enzyme (0.2 nM) is pre-incubated for one hour with inhibitors, typically in about 1 uL of DMSO according to a serial dilution, are added thereto. This assay is effectively started by the addition of FRET substrate (50 nM) and the combination is incubated for one hour. The FRET assay is terminated with by addition of Tris buffer, which raises the pH to neutrality, and the fluorescence is determined. The FRET substrate is a peptide with commercially available fluorophore and quencher, on opposite sides of the BACE cleavage site. Proteolytic cleavage of the FRET substrate releases quenching of fluorescence (excitation 488 nm and […]).

The test system of assay [1] is Aβ40 in conditioned medium of cells stably expressing Amyloid Precursor Protein (APP). Put plainly: In vitro BACE cell-based assay (HEK cell assay, Aβ40 sandwich ELISA). Conditions: Homo sapiens, HEK293. As for the experimental part:
In Vitro BACE Cell-Based Assay
The cell-based assay measures inhibition or reduction of Aβ40 in conditioned medium of test compound treated cells expressing amyloid precursor protein.
Cells stably expressing Amyloid Precursor Protein (APP) were plated at a density of 40K cells/well in 96 well plates (Costar). The cells were cultivated for 24 hours at 37° C. and 5% CO2 in DMEM supplemented with 10% FBS. The test compounds were then added to cells in 10-point dose response concentrations with the starting concentration being either 100 μM or 10 μM. The compounds were diluted from stock solutions in DMSO and the final DMSO concentration of the test compounds on cells was 0.1%. After 24 h of incubation with the test compounds the supernatant conditioned media was collected and the Aβ 40 levels were determined using a sandwich ELISA. The IC50 of the compound was calculated from the percent of control or percent inhibition of Aβ 40 as a function of the concentration of the test compound.
The sandwich ELISA to detect Aβ 40 was performed in 96 well microtiter plates, which were pre-treated with goat anti-rabbit IgG (Pierce). The capture and detecting antibody pair that were used to detect Aβ 40 from cell supernatants were affinity purified pAb40 (Biosource) and biotinylated 6E10 (Signet Labs Inc.), respectively. The optimal concentration for the pAb40 antibody was 3 μg/ml in Superblock/TBS (Pierce) that was supplemented with 0.05% Tween 20 (Sigma). Optimal concentration for the detection antibody 6E10-biotinylated was 0.5 μg/ml in Superblock/TBS (Pierce) that had been supplemented with 2% normal goat serum and 2% normal mouse serum.
Cellular supernatants were incubated with the capture antibody for 3 h at 4° C., followed by 3 wash steps in TBS-tween (0.05%). The detecting antibody incubation was for 2 h at 4° C., again followed by the wash steps as described previously. The final readout of the ELISA is Time-Resolved Fluorescence (counts per minute) using Delfia reagents Streptavidin-Europium and Enhancement solutions (Perkin Elmer) and the Victor 2 multilabel counter (Perkin Elmer).
(ELISA stands for enzyme-linked immunosorbent assay.)

A further assay concerns the target T1, Cathepsin D (Cat D) (Homo sapiens, UniProt P07339).
T1 construct: made in house; host or cells: CHO cells
Nature of the assay: In vitro enzymatic Cathepsin D (Cat D) FRET assay. It counts as biochemical. Conditions: read-out: CatD IC50. The procedure:
In Vitro Enzymatic Cathepsin D (Cat D) FRET (Fluorescence Resonance Energy Transfer) Assay
Recombinant Cat D was expressed in CHO cells. The assay buffer for CathepsinD is 0.05 M citrate pH 3.5, 10% DMSO final, 5 mM CHAPS. The Cat D enzyme (9 nM) is pre-incubated for one hour with inhibitors, typically in about 1 uL of DMSO according to a serial dilution, is added thereto. The assays are effectively started by the addition of different FRET substrates (20 nM for Cat D) and the combination is incubated for one hour. The FRET assay is terminated with by addition of Tris buffer, which raises the pH to neutrality, and the fluorescence is determined. The FRET substrate is a peptide with commercially available fluorophore and quencher, on opposite sides of the BACE cleavage site. The Cat D substrate peptide sequence is based on sequence #1 of Table 1 from Gulnik et al. FEBS Letters v413 p 379-384 1997. Proteolytic cleavage of the FRET substrate releases quenching of fluorescence (Cat D excitation 500 nm and emission 580 nm). […]
Where available, the in-vitro Cat D FRET assay data for each of the Examples, conducted by the first procedure, is provided in Tables 1 and 3. For example, the compound of example 28 has a Cat D IC50 value of >400 uM.

[2] abbreviates: read-out: BACE1 FRET assay IC50.
Setting [3] is: Aβ40, 24 h incubation, read-out: HEK cell assay IC50.
Setting [4] is: average IC50, read-out: BACE1 Enzyme assay IC50.
[5] abbreviates: average IC50, read-out: BACE1 cell assay IC50.

Like-named read-outs stand apart in the source and are kept apart here.

Sequence of BACE1 (P56817 46-501, species assumed): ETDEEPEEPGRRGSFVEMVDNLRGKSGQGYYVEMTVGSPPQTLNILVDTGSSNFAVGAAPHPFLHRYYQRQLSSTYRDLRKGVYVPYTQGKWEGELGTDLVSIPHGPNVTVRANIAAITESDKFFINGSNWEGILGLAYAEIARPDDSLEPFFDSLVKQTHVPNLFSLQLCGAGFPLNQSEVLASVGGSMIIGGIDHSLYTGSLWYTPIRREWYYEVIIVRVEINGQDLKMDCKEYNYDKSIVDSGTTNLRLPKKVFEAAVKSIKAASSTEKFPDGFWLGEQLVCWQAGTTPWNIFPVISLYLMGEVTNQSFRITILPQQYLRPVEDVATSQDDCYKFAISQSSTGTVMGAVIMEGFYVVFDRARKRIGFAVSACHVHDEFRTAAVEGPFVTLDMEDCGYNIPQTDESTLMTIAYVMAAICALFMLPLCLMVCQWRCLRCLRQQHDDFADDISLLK
T1 sequence (P07339 65-412, species assumed): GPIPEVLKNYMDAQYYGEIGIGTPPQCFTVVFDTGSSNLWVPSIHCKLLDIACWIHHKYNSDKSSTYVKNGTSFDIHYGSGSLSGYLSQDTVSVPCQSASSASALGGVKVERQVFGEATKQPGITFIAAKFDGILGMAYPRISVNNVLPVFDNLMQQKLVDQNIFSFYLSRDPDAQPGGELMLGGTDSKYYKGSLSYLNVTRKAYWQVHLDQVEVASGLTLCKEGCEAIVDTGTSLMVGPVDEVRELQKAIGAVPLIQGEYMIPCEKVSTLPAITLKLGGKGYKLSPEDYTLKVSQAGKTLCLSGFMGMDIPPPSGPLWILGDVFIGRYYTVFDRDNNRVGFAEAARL

As a reminder, the IC50 is the point on the concentration scale where inhibition reaches its midpoint. In the case of `Cc1c(C(=O)Nc2ccc(F)c([C@@]3(C)N=C(N)[C@@]4(C)CC[C@@H]3S4(=O)=O)c2)nc2ccc(Cl)cn12` [Example 25, N-(3-((1S,2R,5R)-4-Amino-2,5-dimethyl-8,8-dioxido-8-thia-3-azabicyclo[3.2.1]oct-3-en-2-yl)-4-fluorophenyl)-6-chloro-3-methylimidazo[1,2-a]pyridine-2-carboxamide], the IC50 on BACE1 (setting [2]) turned out to be 0.021 µM; in assay [1] (setting [3]), 0.004 µM; on Cathepsin D (Cat D) it was 318 µM.

Consider `COc1cnc2c(Nc3ccc(F)c([C@@]4(C)N=C(N)[C@@]5(C)CCC[C@@H]4S5(=O)=O)c3)nccc2n1` [Example 1, (1R,4R,5S)-2-Amino-4-(2-fluoro-5-((2-methoxypyrido[3,4-b]pyrazin-5-yl)amino)phenyl)-1,4-dimethyl-9-thia-3-azabicyclo[3.3.1]non-2-ene 9,9-dioxide], for which the IC50 at BACE1 (setting [2]) came to 0.037 µM; in assay [1] (setting [3]) it was 0.057 µM; on Cathepsin D (Cat D) it was 45.8 µM.

Take `Cc1cc(OC(F)F)cnc1C(=O)Nc1ccc(F)c([C@@]2(C)N=C(N)[C@]3(C)CCC[C@@]2(C)S3(=O)=O)c1` [Example 14, N-(3-((1R,2R,5S)-4-Amino-1,2,5-trimethyl-9,9-dioxido-9-thia-3-azabicyclo[3.3.1]non-3-en-2-yl)-4-fluorophenyl)-5-(difluoromethoxy)-3-methylpicolinamide]: the 50% inhibitory concentration (IC50) on BACE1 (setting [2]) came out at 0.009 µM; in assay [1] (setting [3]) it was 0.002 µM; on Cathepsin D (Cat D), 17.7 µM.

In the case of `Cc1cc(C(F)(F)F)cnc1C(=O)Nc1ccc(F)c([C@@]2(CF)N=C(N)[C@@]3(C)CC[C@@H]2S3(=O)=O)c1` (single isomer, unassigned) [Example 114], the IC50 on BACE1 (setting [4]) came to 0.061 µM; in assay [1] (setting [5]) it was 0.082 µM; on Cathepsin D (Cat D) (average IC50, first procedure) it was 3460 µM.

On to `C[C@]1(c2cc(Nc3ncnc4cc(Cl)cnc34)ccc2F)N=C(N)[C@@]2(C)CC[C@@H]1S2(=O)=O` [Example 130, N-(3-((1S,2R,5R)-4-amino-2,5-dimethyl-8,8-dioxido-8-thia-3-azabicyclo[3.2.1]oct-3-en-2-yl)-4-fluorophenyl)-7-chloropyrido[3,2-d]pyrimidin-4-amine], for which the IC50 was 0.005 µM at BACE1 (setting [4]); 0.004 µM in assay [1] (setting [5]); 363 µM at Cathepsin D (Cat D) (average IC50, first procedure).

In the case of `COc1cnc(C(=O)Nc2ccc(F)c([C@@]3(C)N=C(N)[C@@]4(C)CCC[C@]3(C)S4(=O)=O)c2)cn1` [Example 15, N-(3-((1S,2R,5R)-4-Amino-1,2,5-trimethyl-9,9-dioxido-9-thia-3-azabicyclo[3.3.1]non-3-en-2-yl)-4-fluorophenyl)-5-methoxypyrazine-2-carboxamide], the IC50 amounted to 0.049 µM at BACE1 (setting [2]), 0.027 µM in assay [1] (setting [3]) and 138 µM at Cathepsin D (Cat D).

As for `Cc1cc(Cl)cnc1C(=O)Nc1ccc(F)c([C@@]2(C)N=C(N)[C@]3(C)CCC[C@@]2(F)S3(=O)=O)c1` [Example 8, N-(3-((1R,2R,5S)-4-Amino-1-fluoro-2,5-dimethyl-9,9-dioxido-9-thia-3-azabicyclo[3.3.1]non-3-en-2-yl)-4-fluorophenyl)-5-chloro-3-methylpicolinamide], the IC50 on BACE1 (setting [2]) came to 0.004 µM; in assay [1] (setting [3]), 0.113 µM; on Cathepsin D (Cat D), 22.7 µM.

In the case of `COc1cnc(C(=O)Nc2ccc(F)c([C@@]3(C)N=C(N)[C@]4(C)CCC[C@@]3(C)S4(=O)=O)c2)cn1` [Example 16, N-(3-((1R,2R,5S)-4-Amino-1,2,5-trimethyl-9,9-dioxido-9-thia-3-azabicyclo[3.3.1]non-3-en-2-yl)-4-fluorophenyl)-5-methoxypyrazine-2-carboxamide], the IC50 was found to be 0.02 µM on BACE1 (setting [2]), 0.016 µM in assay [1] (setting [3]) and 85.2 µM on Cathepsin D (Cat D).

For the molecule `Cc1cc(Cl)cnc1C(=O)Nc1ccc(F)c([C@@]2(C)N=C(N)[C@@H]3CCC[C@H]2S3(=O)=O)c1` [Example 17, N-(3-((1R,2R,5S)-4-Amino-2-methyl-9,9-dioxido-9-thia-3-azabicyclo[3.3.1]non-3-en-2-yl)-4-fluorophenyl)-5-chloro-3-methylpicolinamide], the 50% inhibitory concentration (IC50) was 0.015 µM at BACE1 (setting [2]), 0.064 µM in assay [1] (setting [3]) and 2780 µM at Cathepsin D (Cat D).

For the molecule `Cn1ccc(COc2cnc3c(Nc4ccc(F)c([C@@]5(C)N=C(N)[C@@]6(C)CC[C@@H]5S6(=O)=O)c4)nccc3n2)n1` [Example 147, N-(3-((1S,2R,5R)-4-amino-2,5-dimethyl-8,8-dioxido-8-thia-3-azabicyclo[3.2.1]oct-3-en-2-yl)-4-fluorophenyl)-2-((1-methyl-1H-pyrazol-3-yl)methoxy)pyrido[3,4-b]pyrazin-5-amine], the concentration for half-maximal inhibition (IC50) is 0.002 µM at BACE1 (setting [4]); 0.001 µM in assay [1] (setting [5]); more than 400 µM at Cathepsin D (Cat D) (average IC50, first procedure).

On to `COc1cnc(C(=O)Nc2ccc(F)c([C@@]3(CF)N=C(N)[C@@]4(C)CC[C@@H]3S4(=O)=O)c2)cn1` (single isomer, unassigned) [Example 120], for which the concentration for half-maximal inhibition (IC50) was 0.049 µM on BACE1 (setting [4]); 0.088 µM in assay [1] (setting [5]); more than 400 µM at Cathepsin D (Cat D) (average IC50, first procedure).

Regarding `C[C@]12CC[C@H]([C@@](C)(c3cc(Nc4nccc5nc(OCC6CC6)cnc45)ccc3F)N=C1N)S2(=O)=O` [Example 67, N-(3-((1R,2R,5S)-4-amino-2,5-dimethyl-8,8-dioxido-8-thia-3-azabicyclo[3.2.1]oct-3-en-2-yl)-4-fluorophenyl)-2-(cyclopropylmethoxy)pyrido[3,4-b]pyrazin-5-amine], the IC50 at BACE1 (setting [4]) was determined as 0.156 µM; in assay [1] (setting [5]), 0.522 µM; on Cathepsin D (Cat D) (average IC50, first procedure), 99.3 µM.

Regarding `Cc1cc(Cl)cnc1C(=O)Nc1ccc(F)c([C@@]2(C)N=C(N)[C@@H]3CC[C@H]2S3(=O)=O)c1` [Example 21, N-(3-((1R,2R,5S)-4-Amino-2-methyl-8,8-dioxido-8-thia-3-azabicyclo[3.2.1]oct-3-en-2-yl)-4-fluorophenyl)-5-chloro-3-methylpicolinamide], the concentration for half-maximal inhibition (IC50) is 0.016 µM on BACE1 (setting [2]), 0.081 µM in assay [1] (setting [3]) and 1640 µM on Cathepsin D (Cat D).

As for `COc1ccc(C(=O)Nc2ccc(F)c([C@@]3(C)N=C(N)[C@@]4(C)CC[C@@H]3S4(=O)=O)c2)c(F)c1` [Example 123, N-(3-((1S,2R,5R)-4-amino-2,5-dimethyl-8,8-dioxido-8-thia-3-azabicyclo[3.2.1]oct-3-en-2-yl)-4-fluorophenyl)-2-fluoro-4-methoxybenzamide], the half-maximal inhibitory concentration (IC50) on BACE1 (setting [4]) was found to be 0.13 µM; in assay [1] (setting [5]) it was 0.083 µM; on Cathepsin D (Cat D) (average IC50, first procedure) it was 1620 µM.

As for `CC(C)COc1cnc2c(Nc3ccc(F)c([C@@]4(C)N=C(N)[C@@]5(C)CC[C@@H]4S5(=O)=O)c3)nccc2n1` [Example 143, N-(3-((1S,2R,5R)-4-amino-2,5-dimethyl-8,8-dioxido-8-thia-3-azabicyclo[3.2.1]oct-3-en-2-yl)-4-fluorophenyl)-2-(2-methylpropoxy)pyrido[3,4-b]pyrazin-5-amine], the IC50 on BACE1 (setting [4]) was 0.009 µM; in assay [1] (setting [5]) it was 0.164 µM; on Cathepsin D (Cat D) (average IC50, first procedure) it was 150 µM.
